# Assay results as given in patent US12036212B2, “Enhancement of tumor response to chemotherapy by activation of the asmase/ceramide pathway through timed administration of a short-acting anti-angiogenic agent” (Memorial Sloan-Kettering Cancer Center, priority 2014, dated 2024).
# What was measured:
# [1] = in vivo; cited from earlier work
# ASMase = ASMase activity radioenzymatic assay in BAEC; format: cell-based, bovine; conditions: etoposide 50 μM
# Method: (§1) BAEC were established from the intima of bovine aorta as described^1. Stock cultures were grown in 100-mm dishes in Dulbecco's modified Eagle's medium (DMEM) supplemented with glucose (1 g/liter), 5% heat-inactivated calf serum (CS), penicillin (50 units/ml), and streptomycin (50 μg/ml). Purified human recombinant bFGF (1 ng/ml; R&D Systems, Inc., Minneapolis, MN) was added every other day during the exponential growth phase. […] These plateau phase cells were either used for experiments, or further sub-cultured (up to a maximum of 10 times) at a split ratio of 1:8. For sub-culturing, monolayers were dissociated with STV (0.05% trypsin and 0.02% EDTA in PBS) for 2-3 min at 22° C., washed twice in 5% CS-DMEM, and resuspended in DMEM with supplements as above. These mild conditions of trypsinization were sufficient to detach cells but not injure, stimulate, or affect cell function in a detectable way. BAEC were maintained at 37° C. in 10% CO2 humidified incubators.
# ASMase activity was quantified by radioenzymatic assay using [^14C-methylcholine]sphingomyelin (Amersham) as substrate as described (Schissel et al. J Biol Chem, 271, 18431-18436, 1996). Cell lysates were incubated with [^14C-methylcholine]-sphingomyelin substrate (0.026 mCi/9.5 nmol) in 250 mM sodium acetate, pH 5.0 supplemented with 0.1% Triton X-100 and 1 mM EDTA or 0.1 mM ZnCl. Reactions were terminated after 1 h with CHCl3:MeOH:1N HCl (100:100:1, v/v/v), and [^14C-methylcholine]phosphocholine product in the aqueous layer of the Folch extract was quantified using a Beckman Packard 2200 CA Tricarb scintillation counter. For detection of ASMase activity in patients, 10 μl of serum was used.
# To test the effect of chemotherapy on ASMase signaling and ceramide production, BAEC were treated with paclitaxel (100 nM) and ASMase activity was determined by radioenzymatic assay (Rotolo et al, infra) using [^14C-methylcholine] sphingomyelin (Amersham) as substrate (FIG. 1A). Induction of ASMase activity was observed within 5 minutes after treatment, and the activation continued for 30 minutes. Ceramide generation was monitored using the diacylglycerol kinase assay (Stancevic et al. PLoS ONE 8, e69025, 2013). […] In further support of this, pre-incubation of BAEC with nystatin prior to treatment with chemotherapy inhibits chemotherapy-induced apoptosis (FIG. 3).
# (§2) To determine the generality of the results observed, experiments were carried out using an additional endothelial cell line, human coronary artery endothelial cells (HCAEC); experiments were also performed using a different chemotherapeutic agent. […] Next, HCAEC were treated with paclitaxel (100 nM) (data not shown) and etoposide (50 μM) (FIG. 1F), and ceramide generation was evaluated.
# To further establish the generality of ASMase activation by various chemotherapeutic agents, BAEC and HCAEC were treated with increasing doses of cisplatin (0.1-50 μM) (data not shown). […] The ASMase/ceramide pathway was activated by chemotherapeutic agents that belong to different classes of chemotherapeutic agents, such as: taxanes, topoisomerase inhibitors, and nucleoside analog metabolic inhibitors. Since such chemotherapy agents are characterized by distinct mechanisms of action in tumor cells, it is surprising that a group of such distinct agents converges on a common molecular (ASMase/ceramide) axis in endothelium. The present confirmation that distinct chemotherapeutic agents activate the ASMase/ceramide pathway permits the present inventors to take into account the results of experiments using single dose radiotherapy, which has been reported to activate the same pathway (Rao, S. S. et al., Axitinib sensitization of high Single Dose Radiotherapy. Radiotherapy and Oncology: Journal of the European Society for Therapeutic Radiology and Oncology 111, 88-93, doi:10.1016/j.radonc.2014.02.010 (2014)).
# Gemcitabine was able to activate ASMase in cultured endothelial cells. […]
# ceramide [2] = test: Ceramide generation (diacylglycerol kinase assay) in BAEC; format: cell-based, bovine; conditions: etoposide 50 μM
# Method: as §1
# After treatment, cells were placed on ice, washed with cold PBS, and lipids were extracted by addition of scraped cells in methanol to an equal volume of chloroform and 0.6 volume of buffered saline/EDTA solution (135 mM NaCl, 4.5 mM KCl, 1.5 mM CaCl2), 0.5 mM MgCl2, 5.6 mM glucose, 10 mM HEPES pH 7.2, 10 mM EDTA). Lipids in the organic phase extract were dried under N2 and subjected to mild alkaline hydrolysis (0.1 N methanolic KOH for 1 hour at 37° C.) to remove glycerophospholipids. Samples were re-extracted, and the organic phase was dried under N2. Ceramide contained in each sample was resuspended in a 100 μl reaction mixture containing 150 μg of cardiolipin, 280 μM diethylenetriaminepentaacetic acid, 51 mM octyl-β-glucopyranoside (Calbiochem), 50 mM NaCl, 51 mM imidazole, 1 mM EDTA, 12.5 mM MgCl2, 2 mM dithiothreitol, 0.7% glycerol, 70 μM β-mercaptoethanol, 1 mM ATP, 10 μCi of [γ-^32P]ATP, 35 μg/ml Escherichia coli diacylglycerol kinase (Calbiochem) at pH 6.5. After 30 minutes at room temperature, the reaction was stopped by extraction of lipids with 1 ml of chloroform:methanol:1 N HCl (100:100:1), 170 μl of buffered saline solution (BSS) (135 mM NaCl, 1.5 mM CaCl2, 0.5 mM MgCl2, 5.6 mM glucose, and 10 mM HEPES (pH 72), and 30 μl of 100 mM EDTA. The lower organic phase was dried under N2. Ceramide-1 phosphate was resolved by thin-layer chromatography on silica gel 60 plates (Whatman) using a solvent system of chloroform:methanol:acetic acid (65:15:5, v/v/v) and detected by autoradiography, and incorporated ^32P was quantified by liquid scintillation counting. The level of ceramide was determined by comparison with a standard curve generated concomitantly of known amounts of ceramide.
# To test the effect of chemotherapy on ASMase signaling and ceramide production, BAEC were treated with paclitaxel (100 nM) and ASMase activity was determined by radioenzymatic assay (Rotolo et al, infra) using [^14C-methylcholine] sphingomyelin (Amersham) as substrate (FIG. 1A). […] Ceramide generation was monitored using the diacylglycerol kinase assay (Stancevic et al. PLoS ONE 8, e69025, 2013). […]
# as §2, with “evaluated. […]” for “evaluated.”
# ceramide [3] = test: Ceramide generation in HCAEC; format: cell-based, human; conditions: paclitaxel 100 nM, etoposide 50 μM, cisplatin 0.1-50 μM
# Method: HCAEC were obtained from Clonetics™ Coronary Artery Endothelial Cell Systems (Cambrex Bio Science Inc.). For HCAEC culturing and sub-culturing Clonetics cell system components were used: EBM®-2, Endothelial Cell Basal Medium-2 with addition of Clonetics EGM-2-MV SingleQuots containing growth supplements (Cambrex) (Biomedical Technologies, Inc.). For sub-culturing, monolayers were dissociated with Clonetics® Trypsin/EDTA solution for 2-3 min at 22° C. at a split ratio of 1:4 to expand the cell population for experiments. HCAEC cultures were maintained at 37° C. in 5% CO2 humidified incubators.
# After treatment, cells were placed on ice, washed with cold PBS, and lipids were extracted by addition of scraped cells in methanol to an equal volume of chloroform and 0.6 volume of buffered saline/EDTA solution (135 mM NaCl, 4.5 mM KCl, 1.5 mM CaCl2), 0.5 mM MgCl2, 5.6 mM glucose, 10 mM HEPES pH 7.2, 10 mM EDTA). […] After 30 minutes at room temperature, the reaction was stopped by extraction of lipids with 1 ml of chloroform:methanol:1 N HCl (100:100:1), 170 μl of buffered saline solution (BSS) (135 mM NaCl, 1.5 mM CaCl2, 0.5 mM MgCl2, 5.6 mM glucose, and 10 mM HEPES (pH 72), and 30 μl of 100 mM EDTA. The lower organic phase was dried under N2. Ceramide-1 phosphate was resolved by thin-layer chromatography on silica gel 60 plates (Whatman) using a solvent system of chloroform:methanol:acetic acid (65:15:5, v/v/v) and detected by autoradiography, and incorporated ^32P was quantified by liquid scintillation counting. The level of ceramide was determined by comparison with a standard curve generated concomitantly of known amounts of ceramide.
# as §2, with “evaluated. […]” for “evaluated.”
# BAEC = test: Apoptosis in vitro (Hoechst nuclear staining) in BAEC; format: cell-based, bovine; conditions: 8 hours; for Effect on etoposide-induced apoptosis: BAEC pre-incubated 30 min with bFGF 2 ng/mL, VEGF 2 ng/mL or nystatin 30 μg/mL, etoposide 50 μM
# Method: Apoptosis was assessed in vitro by examining morphologic changes in nuclear chromatin using bis-benzimide trihydrochloride (Hoechst #33258; Sigma-Aldrich, Milwaukee WI). BAEC and HCAEC monolayer cultures were first detached using 0.25% trypsin and 0.02% EDTA in HBSS and then combined with the floating population of cells. The cell pellet was washed in PBS, resuspended in 3% paraformaldehyde, and incubated for 10 min at 22° C. Following the removal of fixative, cells were resuspended in PBS containing 8 μg/ml of Hoechst-33258. Following a 15-min incubation at 22° C., cells were placed on a glass slide, and scored for the incidence of apoptotic chromatin changes using fluorescence microscope.
# Since the ASMase/ceramide pathway is known to play a critical role in endothelial injury and dysfunction, BAEC and HCAEC were treated with paclitaxel (100 nM), etoposide (50 μM), and cisplatin (0.1-50 μM), and endothelial apoptosis was assessed.
# To set the basis for experiments involving evaluation of anti-angiogenic therapy in combination with chemotherapy, and the role of ASMase/ceramide pathway in this process, the effects of various factors on the chemotherapy induced cell death were assessed. BAEC were pre-incubated for 30 min with bFGF (2 ng/mL), VEGF (2 ng/mL) or nystatin (30 μg/mL) prior to treatment with etoposide (50 μM), and apoptosis was evaluated after 8 hours using bis-benzamide trihydrochloride staining (FIG. 3).
# CRM = CRM detection by confocal microscopy in BAEC; format: cell-based, bovine; conditions: nystatin 30 μg/mL 30 min pre-treatment, paclitaxel 100 nM
# Method: BAEC were grown on CC2-treated chamber slides (Nalge Nunc International Corp., Naperville, USA) and then exposed to etoposide or paclitaxel with or without pre-incubation with Nystatin (30 μg/ml, Sigma) for 30 min. BAEC were then washed in cold PBS, fixed for 15 min in fresh 2% paraformaldehyde, washed 2× with cold PBS, and blocked with 5% FBS in PBS for 20 min at room temperature. Cells were stained with anti-ceramide MID 15B4 IgM (Alexis Corporation) at 1:50 dilution for 1 hour at room temperature, washed 3× in PBS, and thereafter with Texas Red-conjugated secondary antibody (Jackson Immunoresearch Laboratories, Inc.) at 1:500 dilution for 1 hour at room temperature. Nonspecific fluorescence was excluded using isotype control IgM (BD Biosciences). Cells were washed 3×, stained with DAPI and mounted in 0.1% paraphenylenediamine. Fluorescence was detected using Leica TCS SP2 AOBS 1- and 2-photon laser scanning confocal (DMRXA2 upright stand) microscope coupled with MetaMorph 7.5 (Molecular Devices). Number of CRMs in membranes of endothelial cells was analyzed using MetaMorph 7.5 software that allowed outlining of regions containing CRMs based on two criteria: 1) CRM size (≥500 nm); 2) Intensity of ceramide staining. Mice: asmase^+/+ and asmase^−/− mice, maintained in a SCID background, were propagated using heterozygous breeding pairs and genotyped as previously described (Santana et al. Cell, 86, 189-199, 1996; Grassme et al. Nat Med 9, 322-330 (2003). 6-12 week-old C57BL6/SV129 male mice, purchased from The Jackson Laboratory (Bar Harbor).
# To test the effect of chemotherapy on ASMase signaling and ceramide production, BAEC were treated with paclitaxel (100 nM) and ASMase activity was determined by radioenzymatic assay (Rotolo et al, infra) using [^14C-methylcholine] sphingomyelin (Amersham) as substrate (FIG. 1A). Induction of ASMase activity was observed within 5 minutes after treatment, and the activation continued for 30 minutes. Ceramide generation was monitored using the diacylglycerol kinase assay (Stancevic et al. PLoS ONE 8, e69025, 2013). […]
compound,measurement,setting,value
COc1cc2nccc(Oc3ccc(NC(=O)C4(C(=O)Nc5ccc(F)cc5)CC4)cc3)c2cc1OC [cabozantinib],Average half-life,[1],55 h
CNC(=O)c1ccccc1Sc1ccc2c(/C=C/c3ccccn3)n[nH]c2c1 [axitinib],Average half-life,[1],2.5 to 6 h
COc1cc([C@@H]2c3cc4c(cc3[C@@H](O[C@@H]3O[C@@H]5CO[C@@H](C)O[C@H]5[C@H](O)[C@H]3O)[C@H]3COC(=O)[C@H]23)OCO4)cc(OC)c1O [etoposide],ASMase activation remained for,ASMase,30 min
same,ASMase activation,"ASMase; cisplatin 0.1-50 μM, gemcitabine 100 nM time-course",activation of ASMase
same,Ceramide formation remained for,ceramide [2],30 min
same,Ceramide generation,"ceramide [2]; paclitaxel 100 nM, cisplatin 0.1-50 μM",ceramide formation within a few minutes
same,Ceramide generation,ceramide [3],leads to the generation of ceramide
same,Apoptotic response,"BAEC; bovine endothelial cells, cisplatin up to 50 μM, etoposide 50 μM alone",significantly induces apoptosis
CNC(=O)c1cc(Oc2ccc(NC(=O)Nc3ccc(Cl)c(C(F)(F)F)c3)cc2)ccn1 [sorafenib],Average half-life,[1],25 to 48 h
CCN(CC)CCNC(=O)c1c(C)[nH]c(/C=C2\C(=O)Nc3ccc(F)cc32)c1C [sunitinib],Average half-life,[1],40 to 60 h
Cc1ccc(Nc2nccc(N(C)c3ccc4c(C)n(C)nc4c3)n2)cc1S(N)(=O)=O [pazopanib],Average half-life,[1],about 30 hours
C[C@@H]1[C@H](O)[C@@H](C)/C=C/C=C/CC/C=C/C=C/C=C/C=C/C(O[C@H]2O[C@H](C)[C@@H](O)[C@H](N)[C@@H]2O)CC2O[C@](O)(CC(O)C(O)CCC(O)CC(O)CC(O)CC(=O)O[C@H]1C)CC(O)C2C(=O)O (some centres unmarked) [nystatin],Effect on paclitaxel-induced CRM formation,CRM,prevented the formation of CRMs
same,Effect on etoposide-induced apoptosis,BAEC,substantially inhibits etoposide-induced apoptosis
COc1cc2c(Oc3ccc4[nH]c(C)cc4c3F)ncnc2cc1OCCCN1CCCC1 [cediranib],Average half-life,[1],22 to 27 h
Clc1ccc(Nc2nnc(Cc3ccncc3)c3ccccc23)cc1 [vatalanib],Average half-life,[1],4.7 h
anginex,Half-life,[1],~0.833 h
Cc1ccc(C(=O)Nc2ccc(CN3CCN(C)CC3)c(C(F)(F)F)c2)cc1C#Cc1cnc2cccnn12 [ponatinib],Average half-life,[1],24 h
"bFGF: basic fibroblast growth factor, pro-angiogenic factor",Effect on etoposide-induced apoptosis,BAEC,substantially inhibits etoposide-induced apoptosis
Cc1[nH]c(/C=C2\C(=O)Nc3ccccc32)c(C)c1CCC(=O)O [SU6668],Average half-life,[1],3.6 h
VEGF,Effect on etoposide-induced apoptosis,BAEC,substantially inhibits etoposide-induced apoptosis
